Laboratory results from patent publication US11045480B2, “Anti-huLRRC15 antibody drug conjugates and methods for their use” (AbbVie Inc., priority 2015, dated 2021).

Key:
[1] = test system: HPAF-II (human pancreatic) xenograft; assay: HPAF-II xenograft tumor growth; type: in vivo, mouse; conditions: SCID mice, biologics 6 mg/kg IP Q4D×6, gemcitabine 100 mg/kg IP (Q3D×4)×2 (FIG. 21A)
Method: For the experiment, 1 million cells (HPAF-II) that were grown in vitro were inoculated subcutaneously per mouse into the right flank of female SCID-Beige mice. Tumors were size matched at ˜200 mm^3, and dosed intraperitoneally (IP) Q4D×6 (1 dose given every 4 days for a total of 6 doses) as shown in FIG. 13B.
In FIG. 21A, HPAF-II pancreatic cancer cells (1 million) were implanted subcutaneously into SCID mice, and mice were randomized when the tumors reached ˜200 mm^3 and dosed with biologics at 6 mg/kg intraperitoneally on a Q4D×6 (one dose given every 4 days for a total of 6 doses), while gemcitabine was dosed intraperitoneally at 100 mg/kg (Q3D×4)×2 (one dose given every three days for 4 doses per cycle, 2 cycles with 8 total doses given).

[2] = test system: EBC-1 (human squamous NSCLC) xenograft; assay: EBC-1 xenograft tumor growth; type: in vivo, mouse
Method: For the experiments, five million cells (EBC-1) that were grown in vitro were inoculated subcutaneously per mouse into the right flank of female SCID-Beige mice. Tumors were size matched at ˜200 mm^3, and dosed intraperitoneally (IP) Q4D×6 (1 dose given every 4 days for a total of 6 doses) as shown in FIG. 13A. Measurements of the length (L) and width (W) of the tumors were taken via electronic caliper and the volume was calculated according to the following equation: V=L×W^2/2.
For this experiment, tumors were size matched at ˜200 mm^3, and dosed intraperitoneally (IP) Q7D×2 (1 dose given every 7 days for a total of 2 doses) as shown in FIG. 13C. […]
5 million cells were implanted subcutaneously into SCID/Beige mice, and mice were randomized when tumor group mean volumes reached ˜200 mm^3.
In FIG. 20C, EBC1 cells (5 million) were implanted subcutaneously into SCID/Beige mice and mice were randomized when the tumors reached ˜200 mm^3 and dosed with biologics at 6 mg/kg intraperitoneally on a Q7D×2 (one dose given every 7 days for a total of 2 doses), while erlotinib was dosed orally daily for 10 days at 50 mg/kg, and carboplatin was dosed intraperitoneally Q4D×3 (one dose given every 4 days for a total of 3 doses) at 50 mg/kg.
In FIG. 21B, EBC-1 squamous NSCLC cells (5 million) were implanted subcutaneously into SCID/Beige mice, and mice were randomized when the tumors reached ˜200 mm^3 and dosed with biologics at 6 mg/kg intraperitoneally on a Q7D×2 (one dose given every 7 days for a total of 2 doses), while gemcitabine was dosed intraperitoneally at 100 mg/kg (Q3D×3) (one dose given every three days for 3 doses total).

[3] = test system: PANC1 (pancreatic) xenograft; assay: PANC1 xenograft tumor growth; type: in vivo, mouse; conditions: PANC1, SCID mice; biologics 12 mg/kg IP Q4D×6; gemcitabine 100 mg/kg IP Q3D×4 (FIG. 20E)
Method: In FIG. 20E, PANC1 pancreatic cancer cells (10 million) were implanted subcutaneously into SCID mice, and mice were randomized when the tumors reached ˜125 mm^3 and dosed with biologics at 12 mg/kg intraperitoneally on a Q4D×6 (one dose given every 4 days for a total of 6 doses), while gemcitabine was dosed intraperitoneally at 100 mg/kg Q3D×4) (one dose given every three days for 4 doses total).

[4] = test system: NW231 breast cancer xenograft; assay: NW231 xenograft tumor growth; type: in vivo, mouse; conditions: NW231, SCID mice; biologics 12 mg/kg IP Q4D×6; doxorubicin 1 mg/kg IV days 0, 4, 8, 13, 18 (FIG. 20D)
Method: In FIG. 20D, NW231 breast cancer cells (10 million) were implanted subcutaneously into SCID mice, and mice were randomized when the tumors reached ˜150 mm^3 and dosed with biologics at 12 mg/kg intraperitoneally on a Q4D×6 (one dose given every 4 days for a total of 6 doses), while doxorubicin was dosed intravenously at 1 mg/kg on days 0, 4, 8, 13 and 18.

[5] = test system: EBC-1 (human squamous NSCLC) xenograft; assay: EBC-1 xenograft tumor growth; type: in vivo, mouse; conditions: EBC-1, SCID/Beige mice; huM25-vcMMAE-E2 at 3 mg/kg (method: biologics 6 mg/kg IP Q7D×2); method: gemcitabine 100 mg/kg IP Q3D×3, result sentence names docetaxel (FIG. 21B)
[6] = test system: SCC-15 head and neck cancer xenograft; assay: SCC-15 xenograft tumor growth; type: in vivo, mouse; conditions: SCC-15, SCID mice; biologics 12 mg/kg IP Q7D×6; carboplatin 50 mg/kg IP Q4D×4 (FIG. 21E)
Method: Radiation is a commonly used cytotoxic therapy in oncology. […] SCC-15 head and neck cancer cells (1 million) were implanted subcutaneously into SCID mice, and mice were randomized when the tumors reached ˜200 mm^3 and dosed with biologics at 12 mg/kg intraperitoneally on a Q4D×6 (one dose given every 4 days for a total of 6 doses), while the radiation was directed at the tumor with a single radiation dose of 15 Gy on day 0.
SCC-15 head and neck cancer cells (1 million) were implanted subcutaneously into SCID mice, and mice were randomized when the tumors reached ˜200 mm^3 and dosed with biologics at 12 mg/kg intraperitoneally on a Q7D×6 (one dose given every 7 days for a total of 6 doses), while carboplatin was dosed intraperitoneally […] at 50 mg/kg Q4D×4 (one dose given every 4 days for a total of 4 doses).

[7] = test system: NCI-H1650 (NSCLC) xenograft; assay: NCI-H1650 xenograft tumor growth; type: in vivo, mouse; conditions: NCI-H1650, SCID/Beige mice; for TGD, single agent / TGImax, single agent: biologics 6 or 12 mg/kg IP Q4D×6, erlotinib 100 mg/kg orally daily ×10, carboplatin 50 mg/kg IP Q4D×4 (FIG. 20A, 22A)
Method: The potency of anti-huLRRC15 ADCs as compared to current standards of care was assessed in xenograft models with NCI-H1650 ([…]), HN5 (head and neck), EBC-1 (squamous NSCLC), NW231 (breast) and PANC1 (pancreatic) cancer cells. […] For FIG. 20A, NCI-H1650 cells (5 million cells) were implanted subcutaneously into SCID/Beige mice and tumors were randomized when they reached ˜200 mm^3 and dosed with biologics at 6 or 12 mg/kg intraperitoneally on a Q4D×6 (one dose given every 4 days for a total of 6 doses), while erlotinib was dosed orally daily for 10 days at 100 mg/kg, and carboplatin was dosed intraperitoneally Q4D×4 (one dose given every 4 days for a total of 4 doses) at 50 mg/kg.
NCI-H1650 NSCLC cancer cells (5 million) were implanted subcutaneously into SCID/Beige mice, and mice were randomized when the tumors reached ˜200 mm^3 and dosed with biologics at 6 or 12 mg/kg intraperitoneally on a Q4D×6 (one dose given every 4 days for a total of 6 doses), while erlotinib was dosed orally daily at 100 mg/kg for 10 doses.
NCI-H1650 NSCLC cancer cells (5 million) were implanted subcutaneously into SCID/Beige mice, and mice were randomized when the tumors reached ˜200 mm^3 and dosed on day 0 with isotype or ADC at 0.1, 0.3, or 0.6 mg/kg intraperitoneally.
NCI-H1650 adeno NSCLC cells (5 million) were implanted subcutaneously into SCID/Beige mice, and mice were randomized when the tumors reached ˜225 mm^3 and dosed with ADC at 0.6 mg/kg or isotype antibody at 12 mg/kg intraperitoneally once on day 0.

[8] = test system: HN5 (head and neck) xenograft; assay: HN5 xenograft tumor growth; type: in vivo, mouse; conditions: HN5, NSG mice; ADC 4.5 mg/kg IP Q4D×6; erlotinib 150 mg/kg orally daily ×10; cetuximab 3 mg/kg IP Q7D×3 (FIG. 20B)
huLRRC15 = target: T1, huLRRC15 (Homo sapiens, UniProt Q8TF66); assay: Flow cytometry competition assay against labeled muM25 (muM25-AF488) on U118MG cells; type: binding; conditions: 1 μg/mL muM25-AF488, unlabeled test antibody 0.0001-100 μg/mL
T1 construct: endogenous in cells; host or cells: U118MG glioblastoma cells
T1 sequence (Q8TF66 22-581): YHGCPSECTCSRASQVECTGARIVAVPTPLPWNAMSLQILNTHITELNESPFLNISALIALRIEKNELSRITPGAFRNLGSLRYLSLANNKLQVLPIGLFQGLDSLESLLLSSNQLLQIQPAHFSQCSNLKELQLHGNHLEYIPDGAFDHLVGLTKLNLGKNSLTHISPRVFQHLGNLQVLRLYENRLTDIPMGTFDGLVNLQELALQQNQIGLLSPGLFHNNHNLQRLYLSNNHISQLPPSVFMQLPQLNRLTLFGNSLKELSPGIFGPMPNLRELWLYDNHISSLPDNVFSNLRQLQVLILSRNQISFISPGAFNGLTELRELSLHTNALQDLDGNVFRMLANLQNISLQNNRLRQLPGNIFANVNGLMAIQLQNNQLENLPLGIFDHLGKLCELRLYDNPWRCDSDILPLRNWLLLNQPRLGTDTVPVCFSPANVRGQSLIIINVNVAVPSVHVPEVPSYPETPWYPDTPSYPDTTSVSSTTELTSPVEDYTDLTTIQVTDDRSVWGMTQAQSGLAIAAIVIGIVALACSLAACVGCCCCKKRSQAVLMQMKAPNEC
Text: Isotype control antibodies (human or mouse) were used as negative controls, and unlabeled muM25 was used as a positive control.
In this assay, competition due to a test antibody binding to the same or a proximal epitope as the labeled reference antibody reduce binding of the reference labeled antibody.

human BM-MSC (Lonza) = assay: In vitro cell killing of human mesenchymal stem cells with TGFβ; type: cell-based; conditions: human BM-MSC (Lonza) treated with 10 ng/mL TGFβ (FIG. 23B)
[9] = EBC-1, SCID/Beige mice, biologics 3 or 6 mg/kg IP Q4D×6, method: docetaxel 7.5 mg/kg IV, result sentence names gemcitabine (FIG. 21C)
[10] = EBC1, SCID/Beige mice, biologics 6 mg/kg IP Q7D×2, erlotinib 50 mg/kg orally daily ×10, carboplatin 50 mg/kg IP Q4D×3 (FIG. 20C)
[11] = EBC-1, SCID mice, 0.6 mg/kg Q7D×2 (FIG. 24H)
[12] = 0.6 mg/kg IP once on day 0 (FIG. 24G)

Molecule: Nc1ccn([C@@H]2O[C@H](CO)[C@@H](O)C2(F)F)c(=O)n1 [gemcitabine, reference compound]
- TGD, single agent [1]: 117%
- TGImax, single agent [1]: 73%
- TGD, single agent [2, 9]: 171%
- TGImax, single agent [2, 9]: 95%
- TGImax [3]: 55%

Molecule: COc1cccc2c1C(=O)c1c(O)c3c(c(O)c1C2=O)C[C@@](O)(C(=O)CO)C[C@@H]3O[C@H]1C[C@H](N)[C@H](O)[C@H](C)O1 [doxorubicin, reference compound]
- TGImax [4]: 65%

Molecule: CC(=O)O[C@@]12CO[C@@H]1C[C@H](O)[C@@]1(C)C(=O)[C@H](O)C3=C(C)[C@@H](OC(=O)[C@H](O)[C@@H](NC(=O)OC(C)(C)C)c4ccccc4)C[C@@](O)([C@@H](OC(=O)c4ccccc4)[C@H]21)C3(C)C [docetaxel, reference compound]
- TGImax, single agent [5]: 77%
- TGD, single agent ([2]; EBC-1, SCID/Beige mice, huM25-vcMMAE-E2 at 3 mg/kg (method: biologics 6 mg/kg IP Q7D×2), method: gemcitabine 100 mg/kg IP Q3D×3, result sentence names docetaxel (FIG. 21B)): 48%

Molecule: N.N.O=C([O-])C1(C(=O)[O-])CCC1.[Pt+2] [carboplatin, reference compound]
- TGD, single agent [6]: 33%
- TGImax, single agent [6]: 56%
- TGD [2, 10]: 43%
- TGImax [2, 10]: 39%
- TGD, single agent [7]: 77%
- TGImax, single agent [7]: 56%

Molecule: C#Cc1cccc(Nc2ncnc3cc(OCCOC)c(OCCOC)cc23)c1 [erlotinib, reference compound]
- TGD [2, 10]: 14%
- TGImax [2, 10]: 27%
- TGD, single agent [7]: 77%
- TGImax, single agent [7]: 90%
- TGD [8]: 12%
- TGImax [8]: 23%

B1: muAD209.9.1: murine anti-huLRRC15 antibody; VH SEQ ID NO:76, VL SEQ ID NO:77 (antibody, V domains shown)
VH: QIQLVQSGPELKKPGETVKISCKASGFAITNFGMNWVKQAPGKGLKWMGWINLYTGEPTFADDFKGRFAFSLETSASTAYLQINNLKNEDTVIYFCARKGETYYRYDGFAYWGQGTLVTVSA
VL: DIVMTQAAPSVPVTPGESVSISCRSSKSLLHSNGNTHLYWFLQRPGQSPQLLIYRMSNLASGVPDRFSGSGSGTAFTLRISRVEAEDVGVYYCMQLLEYPYTFGGGTKLEIE
- competition with labeled muM25 for binding cells expressing huLRRC15 (huLRRC15): do not inhibit

B2: huAD208.4.1-PBD-DAR2: PBD synthon vaPBD conjugated with anti-huLRRC15 antibody huAD208.4.1 to yield a DAR of 2 (conjugate)
VH: EVQLVQSGAEVKKPGSSVKVSCKASGFTFTDYYIHWVKQAPGQGLEWIGLVYPYIGGTNYNQKFKGKATLTVDTSTTTAYMEMSSLRSEDTAVYYCARGDNKYDAMDYWGQGTTVTVSS
VL: DIVLTQSPDSLAVSLGERATINCRASQSVSTSSYSYMHWYQQKPGQPPKLLIKYASSLESGVPDRFSGSGSGTDFTLTISSLQAEDVAVYYCEQSWEIRTFGGGTKVEIK
- cell killing effect relative to isotype-PBD-DAR2 at the same doses (human BM-MSC (Lonza)): higher cell killing effect
- TGD [2, 11]: > 600%
- TGImax [2, 11]: 91%
- TGD [7, 12]: > 388%
- TGImax [7, 12]: 95%
